Experimental findings from US11377444B2, “Pyridopyrimidine compounds acting as mTORC 1/2 dual inhibitors” (MEDSHINE DISCOVERY INC., priority 2017, dated 2022) are described below.

“And” between values parts separate entries of the source, which are not always exact repeats. Identical values can stand only once.

Test [1] relates to human breast cancer MCF-7 cell subcutaneous xenograft tumor. Kind of test: In vivo pharmacodynamic study, MCF-7 subcutaneous xenograft tumor. Particulars: for Tumor volume (27th day): mean ± SEM; for Tumor volume (day 0): day 0, mean ± SEM. More on the design: species or system BALB/c nude mouse. The text has this: Experimental Embodiment 4: In Vivo Pharmacodynamic Study on BALB/c Nude Mouse Model of Human Breast Cancer MCF-7 Cell Subcutaneous Xenograft Tumor
Experimental objective: To study the efficacy of the test compounds on human breast cancer MCF-7 cell subcutaneous xenograft tumor in BALB/c nude mouse model.
Experimental animals: Female BALB/c nude mice, 6-8 weeks old, weighing 18-22 grams; supplier: Shanghai Xipuer-Bikai Experimental Animal Co., Ltd.
Human breast cancer MCF-7 cells (ECACC, article number: 86012803) were subjected to in vitro monolayer culture under the conditions of EMEM (EBSS)+2 mM […]+1% Non Essential Amino Acids (NEAA) medium containing 10% fetal bovine serum, 100 U/mL penicillin and 100 μg/mL streptomycin, and 37° C., 5% CO2incubator. Conventional digestion treatment was carried out with trypsin-EDTA twice a week for cell passage. When the cell saturation was 80%-90%, and the quantity reached the requirement, the cells were collected, counted and inoculated.
Estrogen tablets (0.18 mg) were inoculated into the left back of each mouse three days before cell inoculation, 0.2 mL (1×10^7) MCF-7 cells (added with matrigel, volume ratio of 1:1) were subcutaneously inoculated into the right back of each mouse. When the average volume of tumor reached 142 mm^3, the mice were divided into groups and began to be administrated.
The test compounds were prepared into clear solutions of 0.75 mg/mL, 1.5 mg/mL and 3 mg/mL. The vehicles were 5% DMSO+30% polyethylene glycol 300+65% water.
The experimental indexes were used for investigating whether the growth of the tumors had been inhibited, delayed or cured. The diameters of the tumors were measured with vernier calipers twice a week. The calculation formula of the tumor volume was: V=0.5a×b^2, wherein a and b represent the long and short diameters of the tumor respectively.
The antitumor efficacy of the compound was evaluated by TGI (%) or relative tumor proliferation rate T/C (%). TGI (%) reflects the inhibition rate of the tumor growth. Calculation of TGI (%): TGI (%)=[1−(average tumor volume at the end of administration in the treatment group−average tumor volume at the beginning of administration in the treatment group)/(average tumor volume at the end of treatment in the vehicle control group−average tumor volume at the beginning of treatment in the vehicle control group)]×[…].
Relative tumor proliferation rate T/C (%): The calculation formula was as follows: T/C %=TRTV/CRTV at the beginning of the treatment (TRTV: treatment group RTV; CRTV: negative control group RTV). The relative tumor volume (RTV) was calculated according to the results of tumor measurement. The calculation formula was RTV=Vt/V0, wherein V0 is the average tumor volume measured during administration of the groups (i.e. d0), and Vt is the average tumor volume during a certain measurement, the TRTV and CRTV were taken on the same day.
Statistical analysis included the mean and standard error (SEM) of tumor volume at each time point in each group. […] The comparison between two groups was analyzed by T-test, and the comparison between three or more groups was analyzed by one-way ANOVA.

The test system of a further test is N87 cell. Kind of test: Cell proliferation inhibitory activity (Cell-Titer-Glo), N87. The format is cell-based. The settings on record: 72 h; 3 days incubation. The text has this:
(§1) Experimental Embodiment 2: Evaluation of Cell Proliferation Inhibitory Activity
(§2) Experiment objective: To detect cell proliferation inhibitory activity of the tested compounds.
(§3) Experimental principle: The luciferase in the Cell-Titer-Glo reagent produces oxyluciferin using luciferin, oxygen and ATP as reaction substrates, and releases energy in the form of light. Since the reaction of luciferase requires ATP, the total amount of light generated by the reaction is proportional to the total amount of ATP that reflects cell viability.
(§4) Cell lines: MCF-7 cell line […], HT-29 cell line (ATCC-HTB-38), OE21 (ECACC-96062201), NCI-N87 cell line (ATCC-CRL-5822)
(§5) Cell culture medium: (RPMI 1640 culture medium (Invitrogen #1868546; 10% serum Invitrogen #1804958; L-glutamine 1×, Invitrogen #1830863; dual antibiotic Hyclone #J170012))
(§6) Cell Titer-Glo® Luminescent Cell Viability Assay Kit (Promega #G7573)
(§7) The cells were inoculated in a 384- or 96-well plate with a density of 1000 cells per well and 25 μL per well according to the instructions of the cell inoculating plate. The edge wells were not inoculated with cells, and was supplemented with […].
(§8) (i) The mother solution of the compound was 10 mM, and diluted with DMSO to an initial concentration of 4 mM. The compound was added to the compound mother solution, 9 μL per well.
(§9) (ii) The compound was diluted with ECHO liquid-handling workstation. Each well of the cell plate was added with 125 nL compound. Each well of the cell wells in 2nd column and 23rd column was added with 125 nL DMSO, and each of the PBS wells in 1st column and 24th column was added with 125 nL DMSO.
(§10) (iii) Each well of the cell plate was supplemented with 25 μL culture medium, the final volume in each well of the cell plate was 50 μL, […] 3 times dilution, 10 concentrations, each concentration was duplicated in left and right wells, the final DMSO concentration was 0.25%.
(§11) 2.3. After addition of the compound, centrifugation was performed at 1000 rpm for 1 min, and the cell plate was placed in a 37° C., 5% CO2 incubator for 3 days.
(§12) The cell plate was taken out from the incubator and equilibrated at room temperature for 30 minutes. 25 μL Cell-Titer-Glo reagent was added to each well, shaken for one minute to mix thoroughly, centrifuged at 1000 rpm for 1 minute. After 10 minutes, the plate was read on PerkinElmer Envision with a […] reading time was set at 0.2 second.

For another test, the system named is MCF-7 cell. Kind of test: Cell proliferation inhibitory activity (Cell-Titer-Glo), MCF-7. The settings on record: Homo sapiens, MCF7, 72 h; 3 days incubation. The format is cell-based.
Text: as §1, §2, §3, §4, §5, §6, §7, §8, §9, §10, §11, §12

Turning to `CNC(=O)c1cccc(-c2ccc3c(N4CCOC[C@@H]4C)nc(N4CCOC[C@@H]4C)nc3n2)c1` [AZD2014, reference compound], in test [1] (7.5 mg/kg), the T/C is 53.95%, the TGI is reported as 61.10%, the “RTV (27th day)” value is 2.25 ± 0.47 and the “Tumor volume (27th day)” value amounted to 315 ± 65 mm^3. The “Tumor volume (day 0)” value in test [1] (7.5 mg/kg) was 142 ± 9 mm^3. In test [1] (15 mg/kg), the T/C is on record as 20.36%; the TGI was 104% and 104.37%; the “difference compared with the vehicle control group” value is “significant difference”; the “RTV (27th day)” value is reported as 0.85 ± 0.26. Also, in test [1] (15 mg/kg), the “Tumor volume (27th day)” value was determined as 121 ± 41 mm^3 and the “Tumor volume (day 0)” value amounted to 141 ± 8 mm^3. This compound also came in with an IC50 in the test with N87 cell of 59 nM. In addition, in the test with MCF-7 cell, the half-inhibitory concentration (IC50) is 95 nM.
On to `C[C@H]1COCCN1c1nc(N2CCOC3(CC3)C2)nc2nc(-c3cccc(C(N)=O)c3)ccc12` [Embodiment 51], for which, in test [1] (15 mg/kg), the T/C was 57.84%, the TGI was found to be 59.27%, the “RTV (27th day)” value is recorded as 2.41 ± 0.36 and the “Tumor volume (27th day)” value is listed as 323 ± 25 mm^3. In addition, the “Tumor volume (day 0)” value in test [1] (15 mg/kg) came to 142 ± 11 mm^3. Moreover, the IC50 in the test on N87 cell is 59 nM. In addition, it took 208 nM to reach half-maximal inhibition with MCF-7 cell (IC50).
`CNC(=O)c1cccc(-c2ccc3c(N4CCOC[C@@H]4C)nc(N4CCOC5(CCC5)C4)nc3n2)c1` [Embodiment 23]: in test [1] (7.5 mg/kg), the T/C is 83.52%, the TGI was found to be 22.14%, the “RTV (27th day)” value is reported as 3.48 ± 0.37 and the “Tumor volume (27th day)” value is 489 ± 51 mm^3. For the same compound, the “Tumor volume (day 0)” value in test [1] (7.5 mg/kg) is 142 ± 9 mm^3. For the same compound, in test [1] (15 mg/kg), the T/C is on record as 54.13%, the TGI worked out at 59.05%, the “RTV (27th day)” value came out at 2.26 ± 0.48 and the “Tumor volume (27th day)” value is 324 ± 79 mm^3. The “Tumor volume (day 0)” value in test [1] (15 mg/kg) stood at 141 ± 9 mm^3. In test [1] (30 mg/kg), the T/C turned out to be 25.50%, the TGI turned out to be 98.33%, the “difference compared with the vehicle control group” value is listed as “significant difference” and the “RTV (27th day)” value came out at 1.06 ± 0.17. In addition, in test [1] (30 mg/kg), the “Tumor volume (27th day)” value came out at 150 ± 26 mm^3 and the “Tumor volume (day 0)” value came to 141 ± 8 mm^3. Besides, the TGI in test [1] (30 mg/kg, listed as embodiment 23) is recorded as 98%. Besides, it took 94 nM to reach half-maximal inhibition in the test with N87 cell (IC50). Moreover, half-maximal inhibition with MCF-7 cell (IC50) required 163 nM.

In general, T/C refers to the result in the treated group divided by that in the control group, in per cent. Usually IC50 stands for the midpoint of a concentration-inhibition curve. A higher IC50 goes with a need for much substance.
